In PubChem BioAssay AID330 (DTP/NCI, 2004):
Several values for one entry are separate records, joined by “and”; a condition that tells them apart may be missing. Equal entries are not always repeated. Toxic doses and inconclusive results are not listed. The calls were made as follows: active = survival T/C of 150% or more; inactive = T/C below 125% in these data.

Test system: P388 leukemia ip, CD2F1 mice, survival T/C
Test: NCI In Vivo Anticancer Drug Screen. Data for tumor model P388 Leukemia (intraperitoneal) in CD2F1 (CDF1) mice
Conditions: endpoint: median survival time, higher = longer survival
Method in brief: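 Mice carrying the transplanted tumor received test compound or vehicle. Survival was recorded in each group, and the value is the treated-group measurement divided by that of the vehicle-treated control group.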

[1] = dose: 12.5 mg/kg/injection, schedule: Q01DX009 (ip), vehicle: saline
[2] = dose: 25.0 mg/kg/injection, schedule: Q01DX009 (ip), vehicle: saline
[3] = dose: 100.0 mg/kg/injection, schedule: Q01DX009 (ip), vehicle: saline

Measured: T/C

N#CCC(=O)CCCCCCCO
inactive: dose: 100.0 mg/kg/injection, schedule: Q01DX001 (ip), vehicle: saline 93 % of control | dose: 400.0 mg/kg/injection, schedule: Q01DX001 (ip), vehicle: saline 92 % of control

CSCc1cc(Cl)cc2c1OCOC2
inactive: dose: 50.0 mg/kg/injection, schedule: Q01DX009 (ip), vehicle: saline with Tween-80 102 % of control | dose: 100.0 mg/kg/injection, schedule: Q01DX009 (ip), vehicle: saline with Tween-80 96 % of control | dose: 200.0 mg/kg/injection, schedule: Q01DX009 (ip), vehicle: saline with Tween-80 100 % of control

CCOC(=O)CN=C(c1ccccc1)c1ccccc1
inactive: dose: 6.25 mg/kg/injection, schedule: Q01DX009 (ip), vehicle: saline 105 % of control | [1] 105 % of control | [2] 105 % of control | [3] 89 % of control

O=C1c2cccc3c([N+](=O)[O-])ccc(c23)C(=O)N1NCCO
inactive: dose: 12.5 mg/kg/injection, schedule: Q01DX005 (ip), vehicle: saline with Tween-80 108 % of control | dose: 25.0 mg/kg/injection, schedule: Q01DX005 (ip), vehicle: saline with Tween-80 116 % of control | dose: 50.0 mg/kg/injection, schedule: Q01DX005 (ip), vehicle: saline with Tween-80 111 % of control and 116 % of control | dose: 100.0 mg/kg/injection, schedule: Q01DX005 (ip), vehicle: saline with Tween-80 114 % of control

COc1ccc(C(=O)CC[N+](C)(C)C)cc1
inactive: [1] 106 % of control | [2] 101 % of control

COC(=O)c1cc(=O)n(-c2ccccc2OC)c(SC)n1
inactive: dose: 25.0 mg/kg/injection, schedule: Q04DX002 (ip), vehicle: Klucel (hydroxypropylcellulose) (HPC) 110 % of control | dose: 50.0 mg/kg/injection, schedule: Q04DX002 (ip), vehicle: Klucel (hydroxypropylcellulose) (HPC) 100 % of control | dose: 100.0 mg/kg/injection, schedule: Q04DX002 (ip), vehicle: Klucel (hydroxypropylcellulose) (HPC) 103 % of control

CC(=O)NCCCCCCNC(C)=O
inactive: [2] 100 % of control and 111 % of control and 97 % of control | dose: 31.0 mg/kg/injection, schedule: Q03HX008 (ip), vehicle: saline 101 % of control | dose: 41.7 mg/kg/injection, schedule: Q03HX024 (ip), vehicle: saline 105 % of control | dose: 50.0 mg/kg/injection, schedule: Q01DX009 (ip), vehicle: saline 100 % of control and 103 % of control and 119 % of control | dose: 62.5 mg/kg/injection, schedule: Q03HX008 (ip), vehicle: saline 103 % of control | dose: 83.0 mg/kg/injection, schedule: Q03HX024 (ip), vehicle: saline 107 % of control | [3] 103 % of control and 104 % of control | dose: 125.0 mg/kg/injection, schedule: Q03HX008 (ip), vehicle: saline 103 % of control | dose: 166.7 mg/kg/injection, schedule: Q03HX024 (ip), vehicle: saline 110 % of control | dose: 200.0 mg/kg/injection, schedule: Q01DX009 (ip), vehicle: saline 100 % of control and 105 % of control and 117 % of control | dose: 250.0 mg/kg/injection, schedule: Q01DX001 (ip), vehicle: saline 99 % of control | dose: 250.0 mg/kg/injection, schedule: Q03HX008 (ip), vehicle: saline 106 % of control | dose: 333.0 mg/kg/injection, schedule: Q03HX024 (ip), vehicle: saline 110 % of control | dose: 333.0 mg/kg/injection, schedule: Q04DX003 (ip), vehicle: saline 101 % of control | dose: 400.0 mg/kg/injection, schedule: Q01DX009 (ip), vehicle: saline 100 % of control and 105 % of control and 111 % of control | dose: 500.0 mg/kg/injection, schedule: Q01DX001 (ip), vehicle: saline 99 % of control | dose: 500.0 mg/kg/injection, schedule: Q03HX008 (ip), vehicle: saline 113 % of control | dose: 500.0 mg/kg/injection, schedule: Q03HX024 (ip), vehicle: saline 111 % of control | dose: 666.7 mg/kg/injection, schedule: Q04DX003 (ip), vehicle: saline 108 % of control | dose: 800.0 mg/kg/injection, schedule: Q01DX009 (ip), vehicle: saline 101 % of control and 108 % of control and 114 % of control | dose: 1000.0 mg/kg/injection, schedule: Q01DX001 (ip), vehicle: saline 101 % of control | dose: 1000.0 mg/kg/injection, schedule: Q03HX008 (ip), vehicle: saline 107 % of control | dose: 1333.0 mg/kg/injection, schedule: Q04DX003 (ip), vehicle: saline 106 % of control | dose: 2000.0 mg/kg/injection, schedule: Q01DX001 (ip), vehicle: saline 103 % of control | dose: 2666.0 mg/kg/injection, schedule: Q04DX003 (ip), vehicle: saline 105 % of control
